{"source": "ChEMBL document CHEMBL1149386", "about": "“Design and synthesis of 5-aryl-pyridone-carboxamides as inhibitors of anaplastic lymphoma kinase” (J Med Chem, 2006)", "key": {"[1]": {"target": "ALK tyrosine kinase receptor (Homo sapiens, UniProt Q9UM73)", "sequence (Q9UM73 whole entry)": "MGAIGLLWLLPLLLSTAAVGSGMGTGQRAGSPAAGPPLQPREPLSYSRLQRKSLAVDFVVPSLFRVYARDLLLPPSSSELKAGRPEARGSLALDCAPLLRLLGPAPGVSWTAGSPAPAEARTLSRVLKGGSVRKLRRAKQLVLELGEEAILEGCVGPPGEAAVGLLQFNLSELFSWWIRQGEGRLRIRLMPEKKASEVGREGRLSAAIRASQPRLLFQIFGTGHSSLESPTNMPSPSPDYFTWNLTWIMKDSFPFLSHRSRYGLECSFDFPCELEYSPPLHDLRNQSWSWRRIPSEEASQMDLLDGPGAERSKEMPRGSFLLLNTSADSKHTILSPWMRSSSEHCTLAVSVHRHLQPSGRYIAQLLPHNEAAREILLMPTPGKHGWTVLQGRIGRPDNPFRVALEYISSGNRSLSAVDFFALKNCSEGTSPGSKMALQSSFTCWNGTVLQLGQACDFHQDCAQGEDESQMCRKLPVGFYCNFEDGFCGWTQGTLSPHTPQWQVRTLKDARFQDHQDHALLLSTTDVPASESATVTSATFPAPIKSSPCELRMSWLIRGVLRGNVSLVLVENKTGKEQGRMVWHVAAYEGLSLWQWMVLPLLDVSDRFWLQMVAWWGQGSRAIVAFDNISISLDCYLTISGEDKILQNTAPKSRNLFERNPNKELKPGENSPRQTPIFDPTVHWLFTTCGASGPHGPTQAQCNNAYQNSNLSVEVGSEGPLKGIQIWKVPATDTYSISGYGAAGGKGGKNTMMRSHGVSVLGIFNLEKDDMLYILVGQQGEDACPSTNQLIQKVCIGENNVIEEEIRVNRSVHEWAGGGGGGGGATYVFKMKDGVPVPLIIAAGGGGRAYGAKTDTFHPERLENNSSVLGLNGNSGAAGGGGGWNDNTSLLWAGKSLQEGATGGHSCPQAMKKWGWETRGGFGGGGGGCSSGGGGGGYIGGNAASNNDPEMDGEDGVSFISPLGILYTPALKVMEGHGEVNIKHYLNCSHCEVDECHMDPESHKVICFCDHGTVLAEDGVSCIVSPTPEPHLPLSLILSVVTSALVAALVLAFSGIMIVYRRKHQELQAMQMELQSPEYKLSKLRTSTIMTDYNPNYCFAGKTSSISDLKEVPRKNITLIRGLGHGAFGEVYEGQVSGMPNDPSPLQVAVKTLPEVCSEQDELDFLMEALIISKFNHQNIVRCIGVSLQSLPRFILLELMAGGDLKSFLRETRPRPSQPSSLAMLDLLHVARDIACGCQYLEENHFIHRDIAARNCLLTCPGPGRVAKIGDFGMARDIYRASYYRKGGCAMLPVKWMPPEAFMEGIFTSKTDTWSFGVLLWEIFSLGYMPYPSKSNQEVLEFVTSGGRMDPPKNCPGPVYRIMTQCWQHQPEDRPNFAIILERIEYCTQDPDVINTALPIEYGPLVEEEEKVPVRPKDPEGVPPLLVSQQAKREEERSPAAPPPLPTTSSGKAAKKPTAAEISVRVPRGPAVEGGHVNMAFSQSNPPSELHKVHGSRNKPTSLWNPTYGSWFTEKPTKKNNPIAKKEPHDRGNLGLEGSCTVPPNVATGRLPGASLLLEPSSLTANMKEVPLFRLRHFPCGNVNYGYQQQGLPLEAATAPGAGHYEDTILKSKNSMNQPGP", "experiment": "Inhibitory activity against ALK"}, "[2]": {"target": "Insulin receptor (Homo sapiens, UniProt P06213)", "sequence (P06213 28-758 limits assumed)": "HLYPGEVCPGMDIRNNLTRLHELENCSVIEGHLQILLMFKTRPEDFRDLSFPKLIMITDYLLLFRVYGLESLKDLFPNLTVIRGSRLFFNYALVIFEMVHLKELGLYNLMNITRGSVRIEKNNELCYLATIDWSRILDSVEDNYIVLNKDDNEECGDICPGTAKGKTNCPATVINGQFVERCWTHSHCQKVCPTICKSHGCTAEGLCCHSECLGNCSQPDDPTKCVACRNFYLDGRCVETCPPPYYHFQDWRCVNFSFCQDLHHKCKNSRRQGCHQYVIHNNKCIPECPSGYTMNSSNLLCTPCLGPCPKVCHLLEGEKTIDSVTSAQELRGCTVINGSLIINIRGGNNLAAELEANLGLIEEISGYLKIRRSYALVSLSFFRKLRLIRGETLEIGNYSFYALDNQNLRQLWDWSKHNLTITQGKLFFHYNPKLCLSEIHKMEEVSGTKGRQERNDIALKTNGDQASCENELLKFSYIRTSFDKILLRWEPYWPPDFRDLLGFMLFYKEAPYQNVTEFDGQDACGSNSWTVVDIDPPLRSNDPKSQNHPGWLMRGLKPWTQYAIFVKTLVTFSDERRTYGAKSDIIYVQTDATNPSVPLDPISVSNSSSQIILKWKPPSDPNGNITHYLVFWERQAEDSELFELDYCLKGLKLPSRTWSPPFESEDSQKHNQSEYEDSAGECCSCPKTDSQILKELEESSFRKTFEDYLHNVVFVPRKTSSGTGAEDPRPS", "sequence (P06213 763-1382 limits assumed)": "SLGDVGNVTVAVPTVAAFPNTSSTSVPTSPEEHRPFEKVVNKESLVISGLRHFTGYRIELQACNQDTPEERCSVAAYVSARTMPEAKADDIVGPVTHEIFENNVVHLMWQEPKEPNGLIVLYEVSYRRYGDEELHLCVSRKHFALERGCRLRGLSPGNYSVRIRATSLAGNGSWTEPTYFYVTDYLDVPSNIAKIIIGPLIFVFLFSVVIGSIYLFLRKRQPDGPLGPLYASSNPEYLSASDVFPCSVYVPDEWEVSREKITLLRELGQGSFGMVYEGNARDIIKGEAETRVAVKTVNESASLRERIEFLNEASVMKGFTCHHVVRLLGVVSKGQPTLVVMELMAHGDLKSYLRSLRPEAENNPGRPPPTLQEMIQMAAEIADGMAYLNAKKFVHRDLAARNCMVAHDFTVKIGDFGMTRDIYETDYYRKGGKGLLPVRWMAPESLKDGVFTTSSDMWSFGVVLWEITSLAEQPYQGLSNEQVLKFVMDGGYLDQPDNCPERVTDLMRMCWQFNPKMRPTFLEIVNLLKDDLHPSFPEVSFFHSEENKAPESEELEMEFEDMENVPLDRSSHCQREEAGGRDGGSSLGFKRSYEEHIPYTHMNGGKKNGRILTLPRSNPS", "experiment": "Inhibitory activity against IRK"}, "[3]": {"target": "Insulin-like growth factor 1 receptor (Homo sapiens, UniProt P08069)", "experiment": "Inhibitory activity against IGF1R"}, "[4]": {"target": "T1, Receptor-type tyrosine-protein kinase FLT3 (Homo sapiens, UniProt P36888)", "T1 sequence (P36888 whole entry)": "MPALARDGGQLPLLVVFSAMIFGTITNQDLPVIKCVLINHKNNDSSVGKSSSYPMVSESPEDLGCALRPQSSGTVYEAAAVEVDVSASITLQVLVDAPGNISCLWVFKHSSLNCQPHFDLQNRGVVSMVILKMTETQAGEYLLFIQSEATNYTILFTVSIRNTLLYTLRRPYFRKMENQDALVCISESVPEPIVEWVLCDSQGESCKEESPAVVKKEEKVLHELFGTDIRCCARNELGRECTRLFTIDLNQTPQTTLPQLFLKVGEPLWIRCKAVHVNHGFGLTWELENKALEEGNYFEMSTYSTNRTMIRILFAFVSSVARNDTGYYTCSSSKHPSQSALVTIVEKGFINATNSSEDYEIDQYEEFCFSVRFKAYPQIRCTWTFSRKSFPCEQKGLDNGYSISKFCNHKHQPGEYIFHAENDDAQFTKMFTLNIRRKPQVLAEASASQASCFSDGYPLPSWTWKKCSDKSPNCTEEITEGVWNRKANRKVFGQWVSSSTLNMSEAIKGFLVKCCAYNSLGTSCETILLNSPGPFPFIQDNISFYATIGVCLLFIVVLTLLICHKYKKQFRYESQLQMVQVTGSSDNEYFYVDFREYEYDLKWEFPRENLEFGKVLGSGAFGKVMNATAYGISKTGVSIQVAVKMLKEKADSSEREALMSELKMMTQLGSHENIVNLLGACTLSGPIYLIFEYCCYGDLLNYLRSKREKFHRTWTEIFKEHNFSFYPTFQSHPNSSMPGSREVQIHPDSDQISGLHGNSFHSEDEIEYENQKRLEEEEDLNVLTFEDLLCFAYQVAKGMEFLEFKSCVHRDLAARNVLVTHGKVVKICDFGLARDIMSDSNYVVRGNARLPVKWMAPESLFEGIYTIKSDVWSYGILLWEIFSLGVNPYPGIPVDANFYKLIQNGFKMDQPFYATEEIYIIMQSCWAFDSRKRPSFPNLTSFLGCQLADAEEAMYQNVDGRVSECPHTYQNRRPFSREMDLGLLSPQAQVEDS", "experiment": "Inhibitory activity against Flt3"}, "[5]": {"target": "Tyrosine-protein kinase ABL1 (Homo sapiens, UniProt P00519)", "sequence (P00519 whole entry)": "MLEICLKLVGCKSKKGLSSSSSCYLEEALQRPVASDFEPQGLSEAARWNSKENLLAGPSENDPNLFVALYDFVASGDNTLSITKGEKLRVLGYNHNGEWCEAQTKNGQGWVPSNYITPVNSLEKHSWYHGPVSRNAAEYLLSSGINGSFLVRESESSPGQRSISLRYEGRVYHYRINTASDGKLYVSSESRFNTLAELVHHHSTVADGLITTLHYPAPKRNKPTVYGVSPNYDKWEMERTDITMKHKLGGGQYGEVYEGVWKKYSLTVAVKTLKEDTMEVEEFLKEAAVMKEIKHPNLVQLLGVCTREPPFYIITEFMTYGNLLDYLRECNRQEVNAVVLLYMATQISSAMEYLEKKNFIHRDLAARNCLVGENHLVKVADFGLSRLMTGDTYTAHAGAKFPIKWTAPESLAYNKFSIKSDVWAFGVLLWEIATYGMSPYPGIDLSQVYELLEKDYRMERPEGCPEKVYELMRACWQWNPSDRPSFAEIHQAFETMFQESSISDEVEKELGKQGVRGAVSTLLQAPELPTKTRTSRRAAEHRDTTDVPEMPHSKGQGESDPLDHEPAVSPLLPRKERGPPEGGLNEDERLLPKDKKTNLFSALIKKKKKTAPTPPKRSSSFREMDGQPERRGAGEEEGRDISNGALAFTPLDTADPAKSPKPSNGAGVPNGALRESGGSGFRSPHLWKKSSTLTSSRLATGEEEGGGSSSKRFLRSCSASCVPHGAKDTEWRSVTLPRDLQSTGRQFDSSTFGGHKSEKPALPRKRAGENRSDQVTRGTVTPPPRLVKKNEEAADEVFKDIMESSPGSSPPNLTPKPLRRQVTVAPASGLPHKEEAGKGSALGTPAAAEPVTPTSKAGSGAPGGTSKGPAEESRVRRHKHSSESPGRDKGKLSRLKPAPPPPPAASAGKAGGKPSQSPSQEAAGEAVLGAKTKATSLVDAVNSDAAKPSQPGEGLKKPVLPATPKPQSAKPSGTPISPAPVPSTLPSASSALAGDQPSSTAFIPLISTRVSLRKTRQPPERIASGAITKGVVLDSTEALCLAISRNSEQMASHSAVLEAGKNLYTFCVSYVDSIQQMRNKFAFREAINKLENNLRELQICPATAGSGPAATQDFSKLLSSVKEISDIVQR", "experiment": "Inhibitory activity against Abl"}, "[6]": {"target": "Proto-oncogene tyrosine-protein kinase Src (Homo sapiens, UniProt P12931)", "sequence (P12931 2-536 limits assumed)": "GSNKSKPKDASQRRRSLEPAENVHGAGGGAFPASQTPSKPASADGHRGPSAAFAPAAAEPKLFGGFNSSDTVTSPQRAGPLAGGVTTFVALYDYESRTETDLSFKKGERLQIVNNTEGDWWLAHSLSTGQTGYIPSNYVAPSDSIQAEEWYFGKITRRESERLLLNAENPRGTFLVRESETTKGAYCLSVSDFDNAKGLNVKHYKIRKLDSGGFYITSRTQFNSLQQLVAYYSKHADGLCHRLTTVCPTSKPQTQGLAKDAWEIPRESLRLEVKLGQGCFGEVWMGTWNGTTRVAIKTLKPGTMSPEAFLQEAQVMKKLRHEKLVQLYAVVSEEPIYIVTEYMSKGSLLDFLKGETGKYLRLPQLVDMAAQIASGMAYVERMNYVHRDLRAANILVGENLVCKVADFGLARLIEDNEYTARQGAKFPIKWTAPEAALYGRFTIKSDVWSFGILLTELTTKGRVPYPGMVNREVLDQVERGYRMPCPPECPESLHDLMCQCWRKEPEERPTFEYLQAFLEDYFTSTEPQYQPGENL", "experiment": "Inhibitory activity against Src"}, "[7]": {"tested_on": "BaF3", "experiment": "Antiproliferative activity against parental interleukin-3-dependent BaF3 cell line", "type": "functional, cell-based", "details": "Mus musculus"}, "[8]": {"target": "Bcr/Abl fusion protein (Homo sapiens, UniProt P00519)", "experiment": "Antiproliferative activity against human BCR-ABL positive chronic myeloid leukemia K562 cell line", "type": "functional, cell-based"}, "[9]": {"tested_on": "Jurkat", "experiment": "Antiproliferative activity against human T-cell leukemia Jurkat cell line", "type": "functional, cell-based"}}, "data": [{"smiles": "COc1cc(-c2c[nH]c(=O)c(C(=O)Nc3ccc(CN4CCN(C)CC4)cc3)c2)cc(OC)c1OC", "values": [{"measurement": "IC50", "setting": "[1]", "value": 7.5, "unit": "µM"}, {"measurement": "IC50", "setting": "[2]", "value": 33.5, "unit": "µM"}]}, {"smiles": "CN1CCN(Cc2ccc(NC(=O)c3cc(-c4ccncc4)cnc3O)cc2)CC1", "values": [{"measurement": "IC50", "setting": "[1]", "value": 19.5, "unit": "µM"}, {"measurement": "IC50", "setting": "[2]", "value": "> 40", "unit": "µM"}]}, {"smiles": "CN1CCN(CCCc2ccc(NC(=O)c3cc(-c4ccc5c(c4)OCO5)cnc3O)cc2)CC1", "values": [{"measurement": "IC50", "setting": "[3]", "value": "> 20", "unit": "µM"}, {"measurement": "IC50", "setting": "[4]", "value": "> 20", "unit": "µM"}, {"measurement": "IC50", "setting": "[5]", "value": "> 20", "unit": "µM"}, {"measurement": "IC50", "setting": "[6]", "value": "> 20", "unit": "µM"}, {"measurement": "IC50", "setting": "[7]", "value": 16.2, "unit": "µM"}, {"measurement": "IC50", "setting": "[1]", "value": 1.3, "unit": "µM"}, {"measurement": "Ki", "setting": "[1]", "value": 1.1, "unit": "µM"}, {"measurement": "IC50", "setting": "[2]", "value": 10.1, "unit": "µM"}, {"measurement": "Ki", "setting": "[2]", "value": 9, "unit": "µM"}, {"measurement": "IC50", "setting": "[8]", "value": 14.6, "unit": "µM"}, {"measurement": "IC50", "setting": "[9]", "value": 9.3, "unit": "µM"}]}, {"smiles": "COc1cc(CN2CCN(C)CC2)ccc1NC(=O)c1cc(-c2ccc3c(c2)OCO3)cnc1O", "values": [{"measurement": "IC50", "setting": "[1]", "value": 13.8, "unit": "µM"}, {"measurement": "IC50", "setting": "[2]", "value": "> 40", "unit": "µM"}]}, {"smiles": "CN1CCN(Cc2ccc(N(C)C(=O)c3cc(-c4ccc5c(c4)OCO5)cnc3O)cc2)CC1", "values": [{"measurement": "IC50", "setting": "[1]", "value": 3.7, "unit": "µM"}, {"measurement": "IC50", "setting": "[2]", "value": 32.5, "unit": "µM"}]}, {"smiles": "COc1ccc(-c2c[nH]c(=O)c(C(=O)Nc3ccc(CN4CCN(C)CC4)cc3)c2)cn1", "values": [{"measurement": "IC50", "setting": "[1]", "value": 3, "unit": "µM"}, {"measurement": "IC50", "setting": "[2]", "value": 13.8, "unit": "µM"}]}, {"smiles": "COc1ncc(-c2ccc3c(c2)OCO3)cc1C(=O)Nc1ccc(CN2CCN(C)CC2)cc1", "values": [{"measurement": "IC50", "setting": "[1]", "value": 20.3, "unit": "µM"}, {"measurement": "IC50", "setting": "[2]", "value": "> 40", "unit": "µM"}]}, {"smiles": "CN1CCN(Cc2ccc(NC(=O)c3cc(-c4ccc5c(c4)OCO5)cnc3O)cc2)CC1", "values": [{"measurement": "IC50", "setting": "[3]", "value": "> 20", "unit": "µM"}, {"measurement": "IC50", "setting": "[4]", "value": "> 20", "unit": "µM"}, {"measurement": "IC50", "setting": "[5]", "value": "> 20", "unit": "µM"}, {"measurement": "IC50", "setting": "[6]", "value": "> 20", "unit": "µM"}, {"measurement": "IC50", "setting": "[7]", "value": "> 25", "unit": "µM"}, {"measurement": "IC50", "setting": "[1]", "value": 0.9, "unit": "µM"}, {"measurement": "Ki", "setting": "[1]", "value": 0.5, "unit": "µM"}, {"measurement": "IC50", "setting": "[8]", "value": 12.9, "unit": "µM"}, {"measurement": "IC50", "setting": "[9]", "value": 9.2, "unit": "µM"}]}, {"smiles": "CN1CCN(Cc2ccc(NC(=O)c3cc(-c4ccc5nccnc5c4)c[nH]c3=O)cc2)CC1", "values": [{"measurement": "IC50", "setting": "[1]", "value": 5.5, "unit": "µM"}, {"measurement": "IC50", "setting": "[2]", "value": 7, "unit": "µM"}]}, {"smiles": "CN1CCN(Cc2ccc(NC(=O)c3cc(-c4ccc5c(c4)OCO5)cn(C)c3=O)cc2)CC1", "values": [{"measurement": "IC50", "setting": "[1]", "value": "> 40", "unit": "µM"}, {"measurement": "IC50", "setting": "[2]", "value": "> 40", "unit": "µM"}]}, {"smiles": "CN1CCN(c2ccc(NC(=O)c3cc(-c4ccc5c(c4)OCO5)c[nH]c3=O)cc2)CC1", "values": [{"measurement": "IC50", "setting": "[4]", "value": 5, "unit": "µM"}, {"measurement": "IC50", "setting": "[5]", "value": "> 20", "unit": "µM"}, {"measurement": "IC50", "setting": "[6]", "value": "> 20", "unit": "µM"}, {"measurement": "IC50", "setting": "[8]", "value": 3.8, "unit": "µM"}]}, {"smiles": "Cc1cc(CN2CCN(C)CC2)ccc1NC(=O)c1cc(-c2ccc3c(c2)OCO3)cnc1O", "values": [{"measurement": "IC50", "setting": "[1]", "value": 14.5, "unit": "µM"}, {"measurement": "IC50", "setting": "[2]", "value": "> 40", "unit": "µM"}]}, {"smiles": "Cc1nc2cc(-c3cnc(O)c(C(=O)Nc4ccc(CN5CCN(C)CC5)cc4)c3)ccc2s1", "values": [{"measurement": "IC50", "setting": "[1]", "value": 3.8, "unit": "µM"}, {"measurement": "IC50", "setting": "[2]", "value": 16, "unit": "µM"}]}, {"smiles": "CN1CCN(Cc2ccc(NC(=O)c3cc(-c4ccc5c(c4)OCO5)cnc3Cl)cc2)CC1", "values": [{"measurement": "IC50", "setting": "[1]", "value": 26.8, "unit": "µM"}, {"measurement": "IC50", "setting": "[2]", "value": 27.3, "unit": "µM"}]}, {"smiles": "CN1CCN(CCc2ccc(NC(=O)c3cc(-c4ccc5c(c4)OCO5)cnc3O)cc2)CC1", "values": [{"measurement": "IC50", "setting": "[4]", "value": 4, "unit": "µM"}, {"measurement": "IC50", "setting": "[5]", "value": "> 20", "unit": "µM"}, {"measurement": "IC50", "setting": "[6]", "value": "> 20", "unit": "µM"}, {"measurement": "IC50", "setting": "[7]", "value": 18, "unit": "µM"}, {"measurement": "IC50", "setting": "[1]", "value": 0.4, "unit": "µM"}, {"measurement": "Ki", "setting": "[1]", "value": 0.2, "unit": "µM"}, {"measurement": "IC50", "setting": "[8]", "value": 9.5, "unit": "µM"}, {"measurement": "IC50", "setting": "[9]", "value": 4.7, "unit": "µM"}]}]}
